Measured values: ChEMBL document CHEMBL1133620, “Selective cyclooxygenase-2 inhibitors: heteroaryl modified 1,2-diarylimidazoles are potent, orally active antiinflammatory agents” (J Med Chem, 2000)

Tests used:
[1] = organism: Rattus norvegicus; assay: animal or person; settings: read-out: Inhibition
[2] = target: Prostaglandin G/H synthase 1 (Homo sapiens, UniProt P23219)
[3] = organism: Rattus norvegicus; assay: animal or person; type: functional
[4] = organism: Rattus norvegicus; settings: in vivo, po, 100 mg/kg
[5] = organism: Rattus norvegicus; settings: in vivo, po, 100 mg/kg; remark: listed apart in the source
[6] = organism: Rattus norvegicus; assay: animal or person; type: functional; remark: listed apart in the source
[7] = organism: Rattus norvegicus; assay: animal or person; type: functional; remark: listed apart in the source
[8] = organism: Rattus norvegicus; settings: in vivo, po, 100 mg/kg; remark: listed apart in the source
[9] = in vivo; settings: rat, iv, 10 mg/kg
[10] = organism: Rattus norvegicus; settings: in vivo, po, 100 mg/kg; remark: listed apart in the source
[11] = organism: Rattus norvegicus; settings: in vivo, po, 16 mg/kg
[12] = organism: Rattus norvegicus; settings: in vivo, po, 16 mg/kg; remark: listed apart in the source
[13] = organism: Homo sapiens; assay: tissue or blood
[14] = organism: Rattus norvegicus; settings: in vivo, po, 100 mg/kg; remark: listed apart in the source
[15] = organism: Homo sapiens; assay: tissue or blood; remark: listed apart in the source
[16] = in vivo; settings: rat, iv, 10 mg/kg; remark: listed apart in the source
[17] = in vivo; settings: rat, iv, 2 mg/kg
[18] = organism: Rattus norvegicus; settings: in vivo, po, 100 mg/kg; remark: listed apart in the source
[19] = in vivo; settings: rat, iv, 10 mg/kg; remark: listed apart in the source
[20] = Rattus norvegicus, read-out: ED50

Sequence of Prostaglandin G/H synthase 1 (P23219 whole entry): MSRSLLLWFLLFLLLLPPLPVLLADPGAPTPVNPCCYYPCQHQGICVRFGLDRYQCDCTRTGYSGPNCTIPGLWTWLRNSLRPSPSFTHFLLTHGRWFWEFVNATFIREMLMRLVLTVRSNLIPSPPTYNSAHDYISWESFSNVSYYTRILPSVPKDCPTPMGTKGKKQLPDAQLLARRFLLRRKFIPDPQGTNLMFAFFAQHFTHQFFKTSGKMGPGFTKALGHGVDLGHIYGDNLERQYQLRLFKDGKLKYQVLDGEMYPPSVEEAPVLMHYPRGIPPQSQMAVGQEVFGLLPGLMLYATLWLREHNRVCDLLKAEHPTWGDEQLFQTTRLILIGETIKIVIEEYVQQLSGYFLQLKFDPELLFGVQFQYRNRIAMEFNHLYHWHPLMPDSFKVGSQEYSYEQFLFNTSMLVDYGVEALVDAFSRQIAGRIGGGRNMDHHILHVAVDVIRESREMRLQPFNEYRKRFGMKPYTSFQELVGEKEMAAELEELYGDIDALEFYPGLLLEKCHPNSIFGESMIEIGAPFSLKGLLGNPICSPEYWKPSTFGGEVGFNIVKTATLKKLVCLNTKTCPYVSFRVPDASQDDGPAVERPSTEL

| Structure (SMILES) | inhibition in vivo at 2 mg/kg [1] [%] | IC50 [2] [µM] | other results |
| --- | --- | --- | --- |
| CS(=O)(=O)c1ccc(-n2cc(C(F)(F)F)nc2-c2cccc3c2OCO3)cc1 | 11 | > 100 | – |
| Cc1ccc(-c2nc(C(F)(F)F)cn2-c2ccc(S(N)(=O)=O)cc2)nc1 | 100 | 302 | – |
| CS(=O)(=O)c1ccc(-n2cc(C(F)(F)F)nc2-c2ccccc2)cc1 | – | – | ED50 [3, 20]: 0.15 mg/kg |
| CS(=O)(=O)c1ccc(-n2cc(C(F)(F)F)nc2-c2cccs2)cc1 | 24 | – | – |
| Cc1ncc(-c2nc(C(F)(F)F)cn2-c2ccc(S(N)(=O)=O)cc2)s1 | 75 | > 1000 | – |
| COc1ccc(-c2nc(C(F)(F)F)cn2-c2ccc(S(C)(=O)=O)cc2)cn1 | 100 | – | – |
| NS(=O)(=O)c1ccc(-n2cc(C(F)F)nc2-c2cccnc2)cc1 | 19 | > 100 | – |
| CS(=O)(=O)c1ccc(-n2cc(C(F)(F)F)nc2-c2cc3ccccc3cn2)cc1 | – | 32 | – |
| CS(=O)(=O)c1ccc(-n2cc(C(F)(F)F)nc2-c2cnc3ccccc3c2)cc1 | 90 | – | – |
| Cc1cccc(-c2nc(C(F)(F)F)cn2-c2ccc(S(N)(=O)=O)cc2)n1 | 100 | – | No. of animals with damage [4]: 0; ED50 [3, 20]: 8.2 mg/kg; No. of animals with damage [5]: 0; ED50 [6]: 20.3 mg/kg; ED50 [7]: 0.64 mg/kg |
| Cc1ncccc1-c1nc(C(F)(F)F)cn1-c1ccc(S(N)(=O)=O)cc1 | 100 | – | No. of animals with damage [8]: 0; half-life [9]: 4.85 h; No. of animals with damage [10]: 0; ED50 [3, 20]: 6.9 mg/kg; ED50 [6]: 18 mg/kg; ED50 [7]: 1 mg/kg |
| CS(=O)(=O)c1ccc(-n2cc(C(F)(F)F)nc2-c2cc(Br)cs2)cc1 | 75 | > 1000 | – |
| COc1ccc2c(c1)c(CC(=O)O)c(C)n2C(=O)c1ccc(Cl)cc1 [INDOMETHACIN] | – | – | No. of animals with damage [11]: 6; No. of animals with damage [12]: 6; ED50 [7]: 0.1 mg/kg |
| CS(=O)(=O)c1ccc(-n2cc(C#N)nc2-c2cccnc2)cc1 | – | > 100 | – |
| CS(=O)(=O)c1ccc(-n2cc(C(F)(F)F)nc2-c2cncc(Br)c2)cc1 | 90 | > 1000 | – |
| NS(=O)(=O)c1ccc(-n2cc(C(F)(F)F)nc2-c2cncc(Br)c2)cc1 | 26 | – | – |
| Cc1cn(-c2ccc(S(C)(=O)=O)cc2)c(-c2cccnc2)n1 | – | > 100 | – |
| Cc1ccnc(-c2nc(C(F)(F)F)cn2-c2ccc(S(N)(=O)=O)cc2)c1 | 75 | 84 | – |
| CS(=O)(=O)c1ccc(-n2cc(C(F)(F)F)nc2-c2cccnc2)cc1 | 100 | – | IC50 [13]: 41.6 µM; No. of animals with damage [14]: 0; IC50 [15]: 0.2 µM; ED50 [3, 20]: 5.4 mg/kg; half-life [16]: 11.6 h; No. of animals with damage [5]: 0; ED50 [6]: 8.2 mg/kg; ED50 [7]: 0.25 mg/kg |
| Cc1ccncc1-c1nc(C(F)(F)F)cn1-c1ccc(S(C)(=O)=O)cc1 | – | > 100 | – |
| Cc1ccnc(-c2nc(C(F)(F)F)cn2-c2ccc(S(C)(=O)=O)cc2)c1 | 84 | – | – |
| Cc1cc(-c2nc(C(F)(F)F)cn2-c2ccc(S(N)(=O)=O)cc2)no1 | 92 | > 1000 | – |
| CS(=O)(=O)c1ccc(-n2cc(C(F)(F)F)nc2-c2nccc3ccccc23)cc1 | 60 | – | – |

| Structure (SMILES) | inhibition in vivo at 2 mg/kg [1] [%] | IC50 [2] [µM] | other results |
| --- | --- | --- | --- |
| Cn1cc(-c2nc(C(F)(F)F)cn2-c2ccc(S(C)(=O)=O)cc2)c2ccccc21 | 0 | – | – |
| COc1cncc(-c2nc(C(F)(F)F)cn2-c2ccc(S(C)(=O)=O)cc2)c1 | – | > 100 | – |
| CS(=O)(=O)c1ccc(-n2cc(C(F)(F)F)nc2-c2ccccn2)cc1 | 100 | > 1000 | IC50 [13]: > 10 µM; IC50 [15]: 0.24 µM |
| Cc1cncc(-c2nc(C(F)(F)F)cn2-c2ccc(S(C)(=O)=O)cc2)c1 | 75 | – | – |
| Cc1nc(-c2nc(C(F)(F)F)cn2-c2ccc(S(N)(=O)=O)cc2)cs1 | 100 | – | half-life [17]: 3.4 h; ED50 [3, 20]: 13.4 mg/kg; No. of animals with damage [18]: 0; No. of animals with damage [5]: 0; ED50 [6]: 14 mg/kg; ED50 [7]: 0.57 mg/kg |
| Cc1ccc(-c2nc(C(F)(F)F)cn2-c2ccc(S(C)(=O)=O)cc2)cn1 | 93 | – | ED50 [3, 20]: 41 mg/kg; ED50 [6]: 33 mg/kg; ED50 [7]: 0.2 mg/kg |
| Cc1cccnc1-c1nc(C(F)(F)F)cn1-c1ccc(S(C)(=O)=O)cc1 | 100 | – | ED50 [3]: 35%; ED50 [7]: 0.3 mg/kg |
| Cc1nc(-c2nc(C(F)(F)F)cn2-c2ccc(S(C)(=O)=O)cc2)co1 | 0 | > 100 | – |
| Cc1cccnc1-c1nc(C(F)(F)F)cn1-c1ccc(S(N)(=O)=O)cc1 | 100 | – | – |
| Cc1ccncc1-c1nc(C(F)(F)F)cn1-c1ccc(S(N)(=O)=O)cc1 | – | > 100 | – |
| Cc1nc(-c2nc(C(F)(F)F)cn2-c2ccc(S(C)(=O)=O)cc2)cs1 | 73 | – | – |
| Cc1ccccc1-c1nc(C(F)(F)F)cn1-c1ccc(S(C)(=O)=O)cc1 | – | – | ED50 [3, 20]: 18 mg/kg |
| Cc1csc(-c2nc(C(F)(F)F)cn2-c2ccc(S(N)(=O)=O)cc2)n1 | 100 | > 1000 | ED50 [3, 20]: 13.4 mg/kg; ED50 [6]: 18.5 mg/kg; ED50 [7]: 0.33 mg/kg |
| Cc1ccc(-c2nc(C(F)(F)F)cn2-c2ccc(S(N)(=O)=O)cc2)cn1 | 100 | – | – |
| Cc1ccsc1-c1nc(C(F)(F)F)cn1-c1ccc(S(C)(=O)=O)cc1 | 11 | > 1000 | – |
| NS(=O)(=O)c1ccc(-n2cc(C(F)(F)F)nc2-c2cccs2)cc1 | 95 | – | – |
| Cc1cncc(-c2nc(C(F)(F)F)cn2-c2ccc(S(N)(=O)=O)cc2)c1 | 96 | > 1000 | No. of animals with damage [4]: 0; half-life [19]: 4.96 h; ED50 [3, 20]: 7.5 mg/kg; No. of animals with damage [5]: 0; ED50 [6]: 32 mg/kg; ED50 [7]: 0.67 mg/kg |
| Cc1ncccc1-c1nc(C(F)(F)F)cn1-c1ccc(S(C)(=O)=O)cc1 | 81 | > 100 | – |
| Cc1ccc(-c2nc(C(F)(F)F)cn2-c2ccc(S(C)(=O)=O)cc2)nc1 | 97 | – | ED50 [6]: 20 mg/kg; ED50 [7]: 1 mg/kg |
| Cc1cccc(-c2nc(C(F)(F)F)cn2-c2ccc(S(C)(=O)=O)cc2)n1 | 92 | – | – |
| CS(=O)(=O)c1ccc(-n2cc(CO)nc2-c2cccnc2)cc1 | – | > 1000 | – |
| NS(=O)(=O)c1ccc(-n2cc(C(F)(F)F)nc2-c2cccnc2)cc1 | 100 | > 1000 | – |
| CS(=O)(=O)c1ccc(-n2cc(C(F)F)nc2-c2cccnc2)cc1 | – | > 100 | – |
